Source: patent US20250312469A1 (CANGET BIOTEKPHARMA, priority 2024, published 2025)

Columns and labels:
ABCG2/BCRP = molecular target: T1, ABCG2/BCRP (Homo sapiens, UniProt Q9UNQ0); assay: in vitro; conditions: for recovery at 120 min, 1 µM: Caco-2, pH 7.4, Recovery (%)
T1 sequence (Q9UNQ0 1-655): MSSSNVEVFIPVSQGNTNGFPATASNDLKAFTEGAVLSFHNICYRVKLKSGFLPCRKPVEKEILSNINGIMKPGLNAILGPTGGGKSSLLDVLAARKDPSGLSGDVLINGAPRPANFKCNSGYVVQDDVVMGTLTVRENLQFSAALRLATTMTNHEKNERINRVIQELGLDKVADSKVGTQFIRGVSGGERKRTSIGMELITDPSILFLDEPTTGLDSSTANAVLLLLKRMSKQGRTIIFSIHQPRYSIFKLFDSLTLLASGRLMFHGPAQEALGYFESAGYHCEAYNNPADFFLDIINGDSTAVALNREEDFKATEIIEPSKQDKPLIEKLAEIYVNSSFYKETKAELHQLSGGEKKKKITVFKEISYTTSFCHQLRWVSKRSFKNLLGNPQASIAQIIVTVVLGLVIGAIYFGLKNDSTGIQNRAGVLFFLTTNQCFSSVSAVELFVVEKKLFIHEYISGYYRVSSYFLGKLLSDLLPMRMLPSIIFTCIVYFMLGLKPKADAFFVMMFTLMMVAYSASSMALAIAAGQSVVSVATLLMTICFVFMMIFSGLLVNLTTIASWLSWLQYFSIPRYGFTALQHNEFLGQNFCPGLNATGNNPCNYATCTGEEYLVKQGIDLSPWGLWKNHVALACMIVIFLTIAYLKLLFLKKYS
Procedure: Cell monolayers were grown to confluence on collagen-coated, microporous, polycarbonate membranes in 12-well Costar® plates. […] The Transwell permeability assay buffer was Hanks' balanced salt solution (HBSS) containing 10 mM HEPES and 15 mM glucose at a pH of 7.4. The buffer in the receiver chamber also contained 1% bovine serum albumin. […] Cell monolayers were dosed on the apical side (A-to-B) or basolateral side (B-to-A) and incubated at 37° C. with 5% CO2 in a humidified incubator. Samples were taken from the donor and receiver chambers at 120 minutes. Each determination was performed in duplicate. The flux of lucifer yellow post-experimentally was also measured for each monolayer to ensure no damage was inflicted to the cell monolayers during the flux period. All samples were assayed by LC-MS/MS using electrospray ionization. […] The apparent permeability (Papp) and percent recovery were calculated as follows:
Where, dCr/dt is the slope of the cumulative concentration in the receiver compartment versus time in μM s^−1; Vr is the volume of the receiver compartment in cm^3; Vd is the volume of the donor compartment in cm^3; A is the area of the insert (1.13 cm^2 for 12-well Transwell); CA is the average of the nominal dosing concentration and the measured 120 minute donor concentration in μM; CN is the nominal concentration of the dosing solution in μM; Cr^final is the cumulative receiver concentration in M at the end of the incubation period; and Cd^final is the concentration of the donor in μM at the end of the incubation period.
Efflux ratio (ER) is defined as Papp (B-to-A)/Papp (A-to-B).

UbE2T = molecular target: T2, UbE2T (Homo sapiens, UniProt Q9NPD8); assay: ITC, Flag-UbE2T; type: binding; parameters: host or cells: HEK293T
T2 sequence (Q9NPD8 1-197): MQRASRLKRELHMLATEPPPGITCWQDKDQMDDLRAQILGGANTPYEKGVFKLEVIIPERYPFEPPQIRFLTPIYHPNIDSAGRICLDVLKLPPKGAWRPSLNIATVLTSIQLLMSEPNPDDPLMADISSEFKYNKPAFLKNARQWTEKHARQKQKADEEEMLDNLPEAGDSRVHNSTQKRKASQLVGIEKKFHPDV
Excerpt: Purification of Flag-tagged DDX5 (Flag-DDX5), USP2a (Flag-USP2), UbE2T (Flag-(bE2T) and topoisomerase 1 (Top1) (Flag-Top1) proteins: Flag-DDX5, Flag-USP2, Flag-UbE2T and Flag-Topl proteins were purified from the protein expression vector-transfected HEK293T cells by using the FLAG® M Purification Kit for mammalian expression systems (CELLMM2-IKT, Sigma). Briefly, sub-confluent populations of HEK293T cells were transfected with expression vectors for Flag-DDX5, Flag-USP2, Flag-UbE2T and Flag-Top1 (OriGene) using Lipofectamine 2000 (Invitrogen) as per the manufacturer's instructions. After 72h of transfection, cells were lysed in Cell Lytic M lysis reagent (Sigma Cat #C2978) containing a protease inhibitor cocktail. […]
Replacement of the Tris-HCl buffer with the PBS buffer for purified proteins for drug-protein binding analyses using isothermal titration calorimetry (ITC): After the purified proteins were eluted from the agarose resin with 3×flag peptide, the same purified protein samples from different batches were combined. […] The PBS-resuspended protein samples were recovered from the reservoir and the protein concentrations were determined using the nano-drop reader (Bio-Rad) and BCA Protein Assay (Thermo/Pierce) for double-making sure the concentration. […]

Compound: CCC1(O)C(=O)OCc2c1cc1n(c2=O)Cc2cc3cc4c(cc3nc2-1)OCO4 (stereo not shown) [FL118]
- Papp A→B at 120 min, 1 μM (ABCG2/BCRP; Caco-2, pH 7.4, Papp AVG, Caco-2, A-to-B, first FL118 entry (without Ko143)): 10.7 ×10⁻⁶ cm/s
- Papp A→B at 120 min, 1 μM (ABCG2/BCRP; Caco-2, pH 7.4, Papp R1, Caco-2, A-to-B, first FL118 entry (without Ko143)): 11.2 ×10⁻⁶ cm/s
- Papp A→B at 120 min, 1 μM (ABCG2/BCRP; Caco-2, pH 7.4, Papp R2, Caco-2, A-to-B, first FL118 entry (without Ko143)): 10.3 ×10⁻⁶ cm/s
- recovery at 120 min, 1 µM (ABCG2/BCRP; Caco-2, A-to-B, first FL118 entry (without Ko143)): 57%
- recovery at 120 min, 1 µM (ABCG2/BCRP; Caco-2, A-to-B, second FL118 entry (presumably with Ko143)): 57%
- recovery at 120 min, 1 µM (ABCG2/BCRP; Caco-2, B-to-A, second FL118 entry (presumably with Ko143)): 66%
- Kd (UbE2T): 160 nM
